{"source": "ChEMBL document CHEMBL5120834", "about": "“Design, synthesis and biological evaluation of 3-arylisoquinoline derivatives as topoisomerase I and II dual inhibitors for the therapy of liver cancer” (Eur J Med Chem, 2022)", "key": {"[1]": {"molecular_target": "T1, DNA topoisomerase 1 (Homo sapiens) (UniProt P11387)", "T1 sequence (whole entry)": "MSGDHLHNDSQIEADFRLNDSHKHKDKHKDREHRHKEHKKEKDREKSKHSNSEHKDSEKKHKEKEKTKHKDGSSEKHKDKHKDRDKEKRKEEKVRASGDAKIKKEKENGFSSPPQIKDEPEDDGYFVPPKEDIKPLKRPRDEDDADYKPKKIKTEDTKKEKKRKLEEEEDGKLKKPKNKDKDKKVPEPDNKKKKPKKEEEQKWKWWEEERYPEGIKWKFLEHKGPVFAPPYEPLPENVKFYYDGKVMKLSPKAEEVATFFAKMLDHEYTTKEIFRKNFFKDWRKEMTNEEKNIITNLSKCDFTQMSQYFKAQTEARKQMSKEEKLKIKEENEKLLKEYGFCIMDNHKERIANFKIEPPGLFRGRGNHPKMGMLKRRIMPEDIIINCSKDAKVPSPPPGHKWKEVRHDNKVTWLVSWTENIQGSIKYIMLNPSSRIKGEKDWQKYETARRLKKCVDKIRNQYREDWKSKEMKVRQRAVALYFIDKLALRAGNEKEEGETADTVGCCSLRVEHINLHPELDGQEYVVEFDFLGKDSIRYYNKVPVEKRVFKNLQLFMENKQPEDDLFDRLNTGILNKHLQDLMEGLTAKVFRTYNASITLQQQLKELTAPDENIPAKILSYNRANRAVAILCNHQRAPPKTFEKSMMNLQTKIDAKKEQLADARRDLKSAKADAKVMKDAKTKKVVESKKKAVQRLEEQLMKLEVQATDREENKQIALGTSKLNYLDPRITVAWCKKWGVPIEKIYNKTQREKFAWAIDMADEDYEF", "test": "Inhibition of topoisomerase 1 (unknown origin) assessed as reduction in relaxation of supercoiled plasmid pBR322 DNA at 12.5 to 100 uM incubated for 30 mins by agarose gel electrophoresis", "conditions": "dose 12.5-100 µM"}, "Huh-7 [2]": {"test_system": "Huh-7", "test": "Down regulation of MMP-9 expression in human Huh-7 cells measured after 48 hrs by Western blot analysis", "type": "functional, cell-based"}, "HT-29": {"test_system": "HT-29", "test": "Antiproliferative activity against human HT-29 cells measured after 72 hrs by MTT assay", "type": "functional, cell-based", "conditions": "HT-29, 72 h"}, "Huh-7 [3]": {"test_system": "Huh-7", "test": "Induction of apoptosis in human Huh-7 cells assessed as early apoptotic cells at 1.8 uM measured after 48 hrs by Annexin V-FITC/propidium iodide staining based flow cytometry (reference value: 0.74%)", "type": "functional"}, "U-87 MG": {"test_system": "U-87 MG", "test": "Antiproliferative activity against human U87 cells measured after 72 hrs by MTT assay", "type": "functional, cell-based, U-87MG ATCC"}, "SGC-7901": {"test_system": "SGC-7901", "test": "Antiproliferative activity against human SGC-7901 cells measured after 72 hrs by MTT assay", "type": "functional, cell-based", "conditions": "SGC-7901, 72 h"}, "HCCLM9 [4]": {"test_system": "HCCLM9", "test": "Inhibition of PI3K/AKT/mTOR in human HCCLM9 cells assessed as reduction in mTOR phosphorylation at 1.8 to 7 uM measured after 48 hrs by Western blot analysis", "type": "cell-based", "conditions": "dose 1.8-7 µM"}, "Huh-7 [5]": {"test_system": "Huh-7", "test": "Induction of apoptosis in human Huh-7 cells assessed as viable cells at 3.5 uM measured after 48 hrs by Annexin V-FITC/propidium iodide staining based flow cytometry (reference value: 96.75%)", "type": "functional", "conditions": "read-out: Activity"}, "HCCLM9 [6]": {"test_system": "HCCLM9", "test": "Induction of apoptosis in human HCCLM9 cells assessed as early apoptotic cells at 3.5 uM measured after 48 hrs by Annexin V-FITC/propidium iodide staining based flow cytometry (reference value: 0.33%)", "type": "functional"}, "Huh-7 [7]": {"test_system": "Huh-7", "test": "Induction of apoptosis in human Huh-7 cells assessed as viable cells at 1.8 uM measured after 48 hrs by Annexin V-FITC/propidium iodide staining based flow cytometry (reference value: 96.75%)", "type": "functional", "conditions": "read-out: Activity"}, "Huh-7 [8]": {"test_system": "Huh-7", "test": "Inhibition of PI3K/AKT/mTOR in human Huh-7 cells assessed as reduction in mTOR phosphorylation at 1.8 to 7 uM measured after 48 hrs by Western blot analysis", "type": "cell-based", "conditions": "dose 1.8-7 µM"}, "Huh-7 [9]": {"test_system": "Huh-7", "test": "Induction of apoptosis in human Huh-7 cells assessed as up regulation of cytochrome c expression at 1.8 to 7 uM measured after 48 hrs by Western blot analysis", "type": "functional, cell-based", "conditions": "dose 1.8-7 µM"}, "HCCLM9 [10]": {"test_system": "HCCLM9", "test": "Induction of apoptosis in human HCCLM9 cells assessed as viable cells at 3.5 uM measured after 48 hrs by Annexin V-FITC/propidium iodide staining based flow cytometry (reference value: 95.95%)", "type": "functional", "conditions": "read-out: Activity"}, "Huh-7 [11]": {"test_system": "Huh-7", "test": "Induction of apoptosis in human Huh-7 cells assessed as necrotic cells at 1.8 uM measured after 48 hrs by Annexin V-FITC/propidium iodide staining based flow cytometry (reference value: 0.37%)", "type": "functional"}, "BGC-823": {"test_system": "BGC-823", "test": "Antiproliferative activity against human BGC-823 cells measured after 72 hrs by MTT assay", "type": "functional, cell-based", "conditions": "BGC-823, 72 h"}, "Huh-7 [12]": {"test_system": "Huh-7", "test": "Induction of apoptosis in human Huh-7 cells assessed as down regulation of Bcl-2 expression at 1.8 to 7 uM measured after 48 hrs by Western blot analysis", "type": "functional, cell-based", "conditions": "dose 1.8-7 µM"}, "Huh-7 [13]": {"test_system": "Huh-7", "test": "Inhibition of colony formation in human Huh-7 cells measured after 24 hrs by crystal violet staining based assay", "type": "functional, cell-based", "conditions": "dose 0.5-4 µM, DDE = dose-dependent effect"}, "HCCLM9 [14]": {"test_system": "HCCLM9", "test": "Induction of apoptosis in human HCCLM9 cells assessed as viable cells at 7 uM measured after 48 hrs by Annexin V-FITC/propidium iodide staining based flow cytometry (reference value: 95.95%)", "type": "functional", "conditions": "read-out: Activity"}, "Huh-7 [15]": {"test_system": "Huh-7", "test": "Induction of DNA damage in human Huh-7 cells measured after 48 hrs by comet assay", "type": "functional, cell-based"}, "HCCLM9 [16]": {"test_system": "HCCLM9", "test": "Down regulation of MMP-9 expression in human HCCLM9 cells measured after 48 hrs by Western blot analysis", "type": "functional, cell-based"}, "HCCLM9 [17]": {"test_system": "HCCLM9", "test": "Inhibition of colony formation in human HCCLM9 cells measured after 24 hrs by crystal violet staining based assay", "type": "functional, cell-based", "conditions": "dose 0.5-4 µM, DDE = dose-dependent effect"}, "Huh-7 [18]": {"test_system": "Huh-7", "test": "Induction of apoptosis in human Huh-7 cells assessed as late apoptotic cells at 3.5 uM measured after 48 hrs by Annexin V-FITC/propidium iodide staining based flow cytometry (reference value: 2.14%)", "type": "functional"}}, "note": "Activity calls are given as the source filed them. The rule behind the calls is not given here.", "data": [{"smiles": "c1c(CN2CCCCCC2)c(-c2cc3ccc4c(c3cn2)OCO4)cc2c1OCO2", "values": [{"measurement": "inhibition", "setting": "[1]", "result": "Active"}, {"measurement": "Activity", "setting": "Huh-7 [2]", "result": "Active"}, {"measurement": "IC50", "setting": "HT-29", "result": 5.35, "unit": "µM"}, {"measurement": "Activity", "setting": "Huh-7 [3]", "result": 4.33, "unit": "%"}, {"measurement": "IC50", "setting": "U-87 MG", "result": 54.6, "unit": "µM"}, {"measurement": "IC50", "setting": "SGC-7901", "result": 34.8, "unit": "µM"}, {"measurement": "inhibition", "setting": "HCCLM9 [4]", "result": "Active"}, {"measurement": "viability at 3.5 µM", "setting": "Huh-7 [5]", "result": 85.3, "unit": "%"}, {"measurement": "Activity", "setting": "HCCLM9 [6]", "result": 1.85, "unit": "%"}, {"measurement": "viability at 1.8 µM", "setting": "Huh-7 [7]", "result": 93.8, "unit": "%"}, {"measurement": "inhibition", "setting": "Huh-7 [8]", "result": "Active"}, {"measurement": "Activity", "setting": "Huh-7 [9]", "result": "Active"}, {"measurement": "viability at 3.5 µM", "setting": "HCCLM9 [10]", "result": 83.5, "unit": "%"}, {"measurement": "Activity", "setting": "Huh-7 [11]", "result": 0.34, "unit": "%"}, {"measurement": "IC50", "setting": "BGC-823", "result": 18.6, "unit": "µM"}, {"measurement": "Activity", "setting": "Huh-7 [12]", "result": "Active"}, {"measurement": "inhibition", "setting": "Huh-7 [13]", "result": "Dde"}, {"measurement": "viability at 7 µM", "setting": "HCCLM9 [14]", "result": 53.1, "unit": "%"}, {"measurement": "Activity", "setting": "Huh-7 [15]", "result": "Active"}, {"measurement": "Activity", "setting": "HCCLM9 [16]", "result": "Active"}, {"measurement": "inhibition", "setting": "HCCLM9 [17]", "result": "Dde"}, {"measurement": "Activity", "setting": "Huh-7 [18]", "result": 3.13, "unit": "%"}]}]}
